Measured values reported in the RepoRT retention time repository (doi:10.1016/j.foodchem.2021.129757).

What was measured:
Conditions in all cases: stereoisomer not certain
[1] = RP, 150 × 2.1 mm, 2.6 µm, 40 °C, 0.35 mL/min, estimated dead time 0.94 min; A: water + 0.1% formic acid, pH 3; B: acetonitrile + 0.1% formic acid, pH 3; gradient (min/%B) 0/0 1/0 12.5/100 14/100 14.2/0 15/0
[2] = RP, 150 × 2.1 mm, 2.6 µm, 40 °C, 0.35 mL/min, estimated dead time 0.94 min; A: water + 0.1% formic acid, pH 3; B: acetonitrile + 0.1% formic acid, pH 3; gradient (min/%B) 0/0 1/5 7/45 8.5/80 10.5/80 11/5 12/5
[3] = RP, Waters ACQUITY UPLC HSS T3, 100 × 2.1 mm, 1.8 µm, 30 °C, 0.4 mL/min, estimated dead time 0.55 min; A: water + 0.1% formic acid, pH 3; B: acetonitrile + 0.1% formic acid, pH 3; gradient (min/%B) 0/0 2/0 15/100 22/100 22.1/0 26/0
[4] = RP, Agilent InfinityLab Poroshell 120 EC-C18, 100 × 3 mm, 2.7 µm, 25 °C, 0.4 mL/min, estimated dead time 1.1 min; A: water + 0.1% formic acid, pH 3; B: acetonitrile + 0.1% formic acid, pH 3; gradient (min/%B) 0/5 10/25 20/40 24/90 25/90 26/5 30/5
[5] = RP, Waters Atlantis T3, 100 × 2.1 mm, 3 µm, 40 °C, 0.3 mL/min, estimated dead time 0.73 min; A: water + 0.1% trifluoroacetic acid, pH 2; B: acetonitrile + 0.1% trifluoroacetic acid, pH 2; gradient (min/%B) 0/10 1/10 6/40 7/50 8/50 14/70 16/80 20/10 25/10
[6] = RP, Phenomenex Kinetex EVO C18, 100 × 2.1 mm, 2.6 µm, 40 °C, 0.4 mL/min, estimated dead time 0.55 min; A: water + 0.2% formic acid; B: acetonitrile + 0.2% formic acid; gradient (min/%B) 0/5 0.5/5 7/95 8/95 8.5/5 12/5
[7] = RP, Agilent ZORBAX RRHD Eclipse Plus C18, 50 × 2.1 mm, 1.8 µm, 30 °C, 0.4 mL/min, estimated dead time 0.28 min; A: water + 0.1% formic acid, pH 3; B: acetonitrile + 0.1% formic acid, pH 3; gradient (min/%B) 0/1 5/10 8/25 9.1/99 10/99 12/1
[8] = RP, Agilent ZORBAX RRHD Eclipse Plus C18, 50 × 2.1 mm, 1.8 µm, 30 °C, 0.4 mL/min, estimated dead time 0.28 min; A: water + 0.1% formic acid, pH 3; B: acetonitrile + 0.1% formic acid, pH 3; gradient (min/%B) 0/1 5/10 8/25 9.1/99 10/99 12/99
[9] = RP, Phenomenex Synergi Hydro-RP, 250 × 2 mm, 4 µm, 25 °C, 0.2 mL/min, estimated dead time 2.5 min; A: water + 0.1% formic acid, pH 3; B: acetonitrile + 0.1% formic acid, pH 3; gradient (min/%B) 0/0.5 7/0.5 12/12.5 25/16.3 47/35 48/65 50/65 50.1/0.5
[10] = RP, Waters ACQUITY UPLC HSS T3, 100 × 2.1 mm, 50 °C; A: water + 0.1% formic acid, pH 3; B: 30% methanol + 70% acetonitrile + 0.1% formic acid, pH 3; gradient (min/%B) 0/5 1/8 2/15 3/40 4/70 4.5/100 5/100 6.4/100 6.6/5 6.8/5 7/5
[11] = RP, Waters ACQUITY UPLC BEH C18, 100 × 2.1 mm, 1.7 µm, 65 °C, 0.4 mL/min, estimated dead time 0.55 min; A: water + 0.1% formic acid, pH 3; B: 80% acetonitrile + 20% acetone + 0.1% formic acid, pH 3; gradient (min/%B) 0/0 5/100 5.5/0 6/0

Row | LC retention time [5] [min] | LC retention time [6] [min] | LC retention time [7] [min] | LC retention time [8] [min] | Compound | other results
1 | 2.05 | – | – | – | Oc1cc(O)c2c(c1)OC(c1cc(O)c(O)c(O)c1)C(O)C2 (single isomer, unassigned; (-)) [(-)-Epigallocatechin] | LC retention time [1]: 4.2 min; LC retention time [2]: 4.07 min; LC retention time [3]: 7.91 min; LC retention time [4]: 4.79 min
2 | – | 2.18 | 4.12 | 3.73 | O=Cc1ccc(O)c(O)c1 [3,4-Dihydroxybenzaldehyde] | –
3 | – | 4.51 | 7.32 | 7.28 | O=C(O)CCc1cccc(O)c1 [3-(3-hydroxyphenyl)propanoic acid] | LC retention time [3]: 9.17 min; LC retention time [9]: 29.5 min
4 | – | 1.55 | 3.19 | 1.63 | O=C(O)CNC(=O)c1ccc(O)cc1 [4-Hydroxyhippuric acid] | LC retention time [1]: 3.82 min; LC retention time [2]: 3.56 min; LC retention time [10]: 2.19 min
5 | 12.7 | – | – | – | CC(C)=CCc1c(O)cc(O)c2c1OC(c1ccc(O)cc1)CC2=O (stereo unspecified) [8-prenylnaringenin] | –
6 | – | 2.45 | 3.98 | 1.78 | O=C(O)C=Cc1ccc(OC2OC(C(=O)O)C(O)C(O)C2O)c(O)c1 (stereo unspecified) [Caffeic acid-4-glucuronide] | –
7 | 16.3 | – | – | – | CC(C)c1cc2c(c(O)c1O)C13CCCC(C)(C)C1CC2OC3=O (stereo unspecified) [Carnosol] | LC retention time [10]: 4.52 min; LC retention time [11]: 4.02 min
8 | 9.08 | – | – | – | COc1ccc(C2CC(=O)c3c(O)cc(OC4OC(COC5OC(C)C(O)C(O)C5O)C(O)C(O)C4O)cc3O2)cc1 (stereo unspecified) [Didymin] | –
9 | – | 4.22 | 6.49 | 6.53 | COc1ccc(CCC(=O)O)cc1OC1OC(C(=O)O)C(O)C(O)C1O (stereo unspecified) [Dihydro isoferulic acid-3-O-glucuronide] | –
10 | – | 3.22 | 5.11 | 3.94 | O=C(O)CCc1ccc(O)c(OC2OC(C(=O)O)C(O)C(O)C2O)c1 (stereo unspecified) [Dihydrocaffeic acid-3-O-glucuronide] | –
11 | – | 4.04 | 5.08 | 2.83 | O=C(O)CCc1ccc(O)c(OS(=O)(=O)O)c1 [Dihydrocaffeic acid-3-O-sulfate] | –
12 | – | 4.36 | 5.86 | 4.05 | COc1cc(CCC(=O)O)ccc1OS(=O)(=O)O [Dihydroferulic acid-4-O-Sulfate] | –
13 | – | 4.59 | 6.22 | 4.67 | COc1cc(C=CC(=O)O)ccc1OS(=O)(=O)O [Ferulic acid 4-O-sulfate] | –
14 | – | 3.62 | 4.81 | 3.24 | COc1cc(C=CC(=O)O)ccc1OC1OC(C(=O)O)C(O)C(O)C1O (stereo unspecified) [Ferulic acid-4-O-glucuronide] | –
15 | – | 5.32 | – | – | COc1ccc(C2CC(=O)c3c(O)cc(O)cc3O2)cc1OC1OC(C(=O)O)C(O)C(O)C1O (stereo unspecified) [Hesperetin 3'-O-glucuronide] | LC retention time [4]: 12.2 min
16 | – | 4.79 | 6.76 | 5.94 | COc1ccc(C=CC(=O)O)cc1OS(=O)(=O)O [Isoferulic acid 3-O-sulfate] | –
17 | – | 4.25 | 6.36 | 6.38 | COc1ccc(C=CC(=O)O)cc1OC1OC(C(=O)O)C(O)C(O)C1O (stereo unspecified) [Isoferulic acid-3-O-glucuronide] | LC retention time [9]: 34.4 min
18 | – | 3.68 | 3.98 | 3.47 | COc1ccc(C(=O)O)cc1OS(=O)(=O)O [Isovanillic acid-3-O-sulfate] | –
19 | 11.1 | – | – | – | COc1cc(O)c(CC=C(C)C)c2c1C(=O)CC(c1ccc(O)cc1)O2 (stereo unspecified) [Isoxanthumol] | –

Row | LC retention time [5] [min] | LC retention time [6] [min] | LC retention time [7] [min] | LC retention time [8] [min] | Compound | other results
20 | 7.65 | – | – | – | CC1OC(OCC2OC(Oc3cc(O)c4c(c3)OC(c3ccc(O)cc3)CC4=O)C(O)C(O)C2O)C(O)C(O)C1O (stereo unspecified) [Narirutin] | –
21 | 6.03 | – | – | – | Oc1cc(O)c2c(c1)OC(c1ccc(O)c(O)c1)C(O)C2c1c(O)cc(O)c2c1OC(c1ccc(O)c(O)c1)C(O)C2c1c(O)cc(O)c2c1OC(c1ccc(O)c(O)c1)C(O)C2 (stereo unspecified) [Procyanidin C1] | –
22 | – | 1.44 | 2.8 | 1.12 | O=C(O)c1ccc(O)c(OC2OC(C(=O)O)C(O)C(O)C2O)c1 (stereo unspecified) [Protocatechuic acid-3-O-glucuronide] | –
23 | – | 2.38 | 2.44 | 0.954 | O=C(O)c1ccc(OS(=O)(=O)O)c(O)c1 [Protocatechuic acid-4-O-sulfate] | –
24 | – | 1.03 | – | – | O=C(O)c1ccc(OC2OC(C(=O)O)C(O)C(O)C2O)c(O)c1 (stereo unspecified) [Protocatechuic acid-4-glucuronide] | –
25 | 1.93 | – | – | – | Oc1cccc(O)c1O [Pyrogallol] | LC retention time [1]: 2.06 min; LC retention time [2]: 1.87 min
26 | 6.4 | – | – | – | O=c1c(OC2OC(CO)C(O)C(O)C2O)c(-c2ccc(OC3OC(CO)C(O)C(O)C3O)c(O)c2)oc2cc(O)cc(O)c12 (stereo unspecified) [Quercetin-3,4'-diglucoside] | LC retention time [1]: 5.13 min; LC retention time [2]: 5.11 min; LC retention time [9]: 29.1 min
27 | – | 4.85 | – | – | O=C(O)C1OC(Oc2cc(O)cc(C=Cc3ccc(O)cc3)c2)C(O)C(O)C1O (stereo unspecified) [Resveratrol 3-O-glucuronide] | LC retention time [4]: 11 min
28 | – | 5.89 | – | – | O=S(=O)(O)Oc1cc(O)cc(C=Cc2ccc(O)cc2)c1 [Resveratrol 3-O-sulfate] | LC retention time [4]: 8.93 min
29 | – | 4.64 | – | – | O=C(O)C1OC(Oc2ccc(C=Cc3cc(O)cc(O)c3)cc2)C(O)C(O)C1O (stereo unspecified) [Resveratrol 4-O-glucuronide] | LC retention time [4]: 9.05 min
30 | 11.8 | – | – | – | CC(C)c1cc2c(c(O)c1O)C13CCCC(C)(C)C1C(OC3=O)C2O (stereo unspecified) [Rosmanol] | –
31 | 12.1 | – | – | – | COc1cc(O)c2c(c1)OC(c1ccc(O)cc1)CC2=O (stereo unspecified) [Sakuranetin] | –
32 | – | 4.68 | – | – | O=c1oc2c(O)c(O)ccc2c2cc(O)c(O)cc12 [Urolithin  D] | LC retention time [4]: 8.24 min
33 | – | 5.23 | – | – | O=C(O)C1OC(Oc2ccc3c(c2)oc(=O)c2ccccc23)C(O)C(O)C1O (stereo unspecified) [Urolithin B-3-O-glucuronide] | LC retention time [4]: 11.6 min
34 | – | 5.11 | – | – | O=c1oc2cc(O)ccc2c2cc(O)c(O)cc12 [Urolithin C] | LC retention time [4]: 10.3 min
35 | – | 3.13 | 3.82 | 2 | COc1cc(C(=O)O)ccc1OS(=O)(=O)O [Vanillic acid-4-O-sulfate] | –
36 | 15.4 | – | – | – | COc1cc(O)c(CC=C(C)C)c(O)c1C(=O)C=Cc1ccc(O)cc1 [Xanthohumol] | –
37 | 7.37 | – | – | – | O=c1c(O)c(-c2ccc(O)cc2)oc2cc(OC3OC(CO)C(O)C(O)C3O)cc(O)c12 (stereo unspecified) [kaempferol-7-O-glucoside] | LC retention time [9]: 38.3 min
38 | – | 2.38 | – | – | O=C(O)c1ccc(O)c(OS(=O)(=O)O)c1 [protocatechuic acid-3-O-sulfate] | –

Row | Compound | LC retention time [5] [min] | LC retention time [6] [min] | LC retention time [7] [min] | LC retention time [8] [min] | other results
39 | CC(C)c1cc2c(c(O)c1O)C1(C(=O)O)CCCC(C)(C)C1CC2 (stereo unspecified) [Carnosic acid] | 15.2 | – | – | – | –
